{
  "source": "patent US12390451B2",
  "about": "“Small molecule inhibitor of the JAK family of kinases” (Janssen Pharmaceutica NV, priority 2021, dated 2025)",
  "key": {"[1]": {"target": "T1, JAK1/Tyk2 (Mus musculus, UniProt P52332+Q9R117)", "T1 construct": "endogenous in cells; host or cells: murine whole blood", "T1 sequence (P52332 whole entry)": "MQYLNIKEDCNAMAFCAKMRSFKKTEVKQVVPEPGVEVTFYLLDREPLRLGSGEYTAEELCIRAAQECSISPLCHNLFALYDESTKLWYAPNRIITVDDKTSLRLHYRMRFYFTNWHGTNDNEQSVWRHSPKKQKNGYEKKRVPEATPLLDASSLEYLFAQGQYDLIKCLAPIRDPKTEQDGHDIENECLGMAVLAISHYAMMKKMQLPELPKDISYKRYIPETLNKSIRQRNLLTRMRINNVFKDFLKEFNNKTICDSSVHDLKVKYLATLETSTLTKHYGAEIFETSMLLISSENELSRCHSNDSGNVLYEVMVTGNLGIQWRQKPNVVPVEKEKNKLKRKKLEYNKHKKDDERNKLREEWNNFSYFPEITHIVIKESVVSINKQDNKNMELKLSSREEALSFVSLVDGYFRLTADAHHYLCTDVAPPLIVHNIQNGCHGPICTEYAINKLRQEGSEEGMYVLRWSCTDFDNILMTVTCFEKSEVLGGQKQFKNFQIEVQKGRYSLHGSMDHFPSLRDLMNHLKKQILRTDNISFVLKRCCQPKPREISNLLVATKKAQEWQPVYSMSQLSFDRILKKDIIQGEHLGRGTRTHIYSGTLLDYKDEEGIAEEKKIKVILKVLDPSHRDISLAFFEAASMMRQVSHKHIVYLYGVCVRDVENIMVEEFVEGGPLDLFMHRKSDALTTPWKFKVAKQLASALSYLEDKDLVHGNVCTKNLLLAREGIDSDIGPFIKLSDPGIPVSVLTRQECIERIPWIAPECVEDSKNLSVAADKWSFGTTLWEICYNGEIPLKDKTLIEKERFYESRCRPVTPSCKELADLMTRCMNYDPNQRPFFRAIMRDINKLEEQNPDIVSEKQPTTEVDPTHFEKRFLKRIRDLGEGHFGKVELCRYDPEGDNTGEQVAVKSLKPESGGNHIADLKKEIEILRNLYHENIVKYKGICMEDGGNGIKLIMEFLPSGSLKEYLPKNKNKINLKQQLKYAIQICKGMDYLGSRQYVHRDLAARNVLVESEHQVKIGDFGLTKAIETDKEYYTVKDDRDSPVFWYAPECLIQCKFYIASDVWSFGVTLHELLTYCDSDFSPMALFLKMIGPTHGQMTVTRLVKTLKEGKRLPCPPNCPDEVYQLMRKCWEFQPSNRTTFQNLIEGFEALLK", "T1 sequence (Q9R117 whole entry)": "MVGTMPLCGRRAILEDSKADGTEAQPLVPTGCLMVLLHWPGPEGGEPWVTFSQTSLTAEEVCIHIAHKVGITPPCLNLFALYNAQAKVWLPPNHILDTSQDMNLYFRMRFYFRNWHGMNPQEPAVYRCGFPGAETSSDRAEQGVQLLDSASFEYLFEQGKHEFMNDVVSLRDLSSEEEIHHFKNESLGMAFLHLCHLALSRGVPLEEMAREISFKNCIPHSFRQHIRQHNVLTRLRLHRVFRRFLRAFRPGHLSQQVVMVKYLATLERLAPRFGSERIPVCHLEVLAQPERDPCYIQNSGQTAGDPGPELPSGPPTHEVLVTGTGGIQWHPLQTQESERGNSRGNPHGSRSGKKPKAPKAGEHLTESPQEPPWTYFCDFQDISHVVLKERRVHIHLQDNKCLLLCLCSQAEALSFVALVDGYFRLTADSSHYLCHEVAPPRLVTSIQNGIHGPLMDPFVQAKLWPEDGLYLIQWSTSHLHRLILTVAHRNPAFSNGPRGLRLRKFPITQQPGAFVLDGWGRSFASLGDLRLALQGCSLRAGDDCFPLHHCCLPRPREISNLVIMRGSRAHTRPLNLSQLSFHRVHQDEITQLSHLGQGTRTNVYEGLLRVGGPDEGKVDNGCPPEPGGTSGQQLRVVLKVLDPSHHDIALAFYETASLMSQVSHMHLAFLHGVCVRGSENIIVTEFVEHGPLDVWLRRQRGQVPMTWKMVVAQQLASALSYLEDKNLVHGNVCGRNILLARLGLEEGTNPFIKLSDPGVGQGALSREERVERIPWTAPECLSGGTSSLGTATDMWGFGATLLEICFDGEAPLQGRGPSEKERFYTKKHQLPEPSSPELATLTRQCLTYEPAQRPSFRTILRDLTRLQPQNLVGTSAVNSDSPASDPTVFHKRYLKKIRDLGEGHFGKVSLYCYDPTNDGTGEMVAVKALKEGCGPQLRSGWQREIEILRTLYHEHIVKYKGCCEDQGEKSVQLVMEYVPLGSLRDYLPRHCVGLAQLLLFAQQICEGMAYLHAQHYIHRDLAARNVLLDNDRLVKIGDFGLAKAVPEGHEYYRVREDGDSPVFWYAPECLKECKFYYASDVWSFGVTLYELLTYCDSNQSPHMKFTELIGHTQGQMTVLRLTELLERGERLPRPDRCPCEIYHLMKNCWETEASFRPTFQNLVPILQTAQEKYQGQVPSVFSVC", "T1 sequence (P33896 27-590 partner)": "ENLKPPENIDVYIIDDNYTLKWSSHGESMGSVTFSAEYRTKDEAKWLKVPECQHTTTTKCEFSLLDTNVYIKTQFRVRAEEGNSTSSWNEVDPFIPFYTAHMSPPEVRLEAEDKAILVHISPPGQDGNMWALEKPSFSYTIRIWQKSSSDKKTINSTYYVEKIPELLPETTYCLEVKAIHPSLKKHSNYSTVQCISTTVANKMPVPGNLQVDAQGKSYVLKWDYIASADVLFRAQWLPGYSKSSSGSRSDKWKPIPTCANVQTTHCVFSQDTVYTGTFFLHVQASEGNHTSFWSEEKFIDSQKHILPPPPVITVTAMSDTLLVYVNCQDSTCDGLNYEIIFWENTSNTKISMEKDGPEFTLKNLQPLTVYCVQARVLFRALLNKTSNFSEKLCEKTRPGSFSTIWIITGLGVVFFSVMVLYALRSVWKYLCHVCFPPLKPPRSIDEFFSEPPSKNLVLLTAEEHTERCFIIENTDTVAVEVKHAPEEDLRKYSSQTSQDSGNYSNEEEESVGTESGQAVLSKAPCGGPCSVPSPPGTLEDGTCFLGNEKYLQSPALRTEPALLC", "T1 sequence (O35664 22-513 partner)": "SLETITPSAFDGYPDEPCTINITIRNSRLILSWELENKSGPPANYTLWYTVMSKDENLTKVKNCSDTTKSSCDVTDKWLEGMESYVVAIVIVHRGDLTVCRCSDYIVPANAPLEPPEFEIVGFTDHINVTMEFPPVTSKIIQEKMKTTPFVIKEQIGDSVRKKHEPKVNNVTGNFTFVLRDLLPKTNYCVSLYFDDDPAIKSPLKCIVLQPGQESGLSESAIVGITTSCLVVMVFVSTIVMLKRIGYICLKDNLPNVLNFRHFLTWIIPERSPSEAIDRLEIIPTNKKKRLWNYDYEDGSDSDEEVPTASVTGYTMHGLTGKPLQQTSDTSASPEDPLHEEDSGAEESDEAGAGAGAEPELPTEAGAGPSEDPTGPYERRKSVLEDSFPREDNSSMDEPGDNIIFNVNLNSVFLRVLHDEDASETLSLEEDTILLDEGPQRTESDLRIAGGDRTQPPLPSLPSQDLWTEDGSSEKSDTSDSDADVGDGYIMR", "experiment": "IFNα-induced pSTAT-3 in murine whole blood", "type": "cell-based", "experimental": "Mouse whole blood IC50 values were also generated to build an understanding of the relationship between systemic exposures and target engagement in murine models. In murine whole blood, the in vitro activity of compound of Formula I in the inhibition of IFNα-(JAK1/Tyk2), IL-21-(JAK1/3), and IL-12-(JAK2/Tyk2) induced pSTAT responses in murine whole blood was measured. […] No reliable IC50 could be reported for inhibition of IL-12 induced pSTAT-4 in murine whole blood."}, "[2]": {"experiment": "Serum and colon concentrations in explant studies SS-1 and SS-2", "type": "in vivo, C57BL/6 mice", "conditions": "for concentration at 4 h: C57BL/6, mouse, po", "experimental": "C57BL/6 mice (6 to 8 weeks old) were randomized by weight and assigned to various treatment groups for each study. Mice were dosed orally with indicated doses of compound of Formula I. At the termination of the study, blood was collected via cardiocentesis, serum and washed proximal colon was prepared for PK analysis.\nThe high colonic and low systemic exposure observed for compound of Formula I implicate the role for colonic drug levels as the key driver of the observed pharmacology.\nData are presented as mean±SEM; N=5/group. BLOQ, below limit of quantification."}, "[3]": {"experiment": "Tissue distribution in mice after oral administration", "type": "in vivo, female C57Bl/6 mice", "conditions": "oral 10 mg/kg; for concentration at 0.5 h / concentration at 1 h / concentration at 2 h / concentration at 3 h / concentration at 5 h / concentration at 7 h / concentration at 24 h: female, C57Bl/6, mouse", "experimental": "Limited tissue (liver, intestine) distribution studies were conducted in female C57Bl/6 mice ([…]) at 0.5, 1, 2, 3, 5, 7, and 24 hours following oral administration of compound of Formula 1 at a dose of 10 mg/kg formulated as a solution in 20% HP-β-CD. The plasma and the following tissues were harvested for compound concentration analysis: liver, whole ileum, and whole colon. The ileum and colon were flushed with saline prior to homogenization. Feces were collected over a period of 24 hours. All tissues (except plasma) were homogenized in sterile water and compound of Formula I concentrations were determined using LC-MS/MS. […] The concentration of compound of Formula I in feces was 125.6 μg at 24 hours post dose."}, "[4]": {"conditions": "colon, mean ± SD, read-out: Colon concentration"}, "[5]": {"conditions": "ileum, mean ± SD, read-out: Ileum concentration"}, "[6]": {"conditions": "liver, mean ± SD, read-out: Liver concentration"}, "[7]": {"conditions": "plasma, mean ± SD, read-out: Plasma concentration"}},
  "note": "Where two headings read alike, the source gives them in different places.",
  "data": [
    {"smiles": "CC(C)(O)CNC(=O)Cc1nc2cnc3[nH]ccc3c2n1[C@H]1CC[C@H](CC#N)CC1", "note": "[Compound of Formula I, 2-(1-((1r,4r)-4-(Cyanomethyl)cyclohexyl)-1,6-dihydroimidazo[4,5-d]pyrrolo[2,3-b]pyridin-2-yl)-N-(2-hydroxy-2-methylpropyl)acetamide]", "values": [
      {"measurement": "IC50", "setting": "[1]", "value": 299, "unit": "nM"},
      {"measurement": "concentration at 4 h", "setting": "[2]; colon, 0.25 mg/kg, SS-1, mice, 4 hours post oral dose 0.25 mg/kg, mean±SEM, read-out: Colon concentration", "value": "446 ± 51.5", "unit": "ng/g"},
      {"measurement": "concentration at 4 h", "setting": "[2]; colon, 0.25 mg/kg, SS-2, mice, 4 hours post oral dose 0.25 mg/kg, mean±SEM, read-out: Colon concentration", "value": "262 ± 30.5", "unit": "ng/g"},
      {"measurement": "concentration at 4 h", "setting": "[2]; colon, 2.5 mg/kg, SS-1, mice, 4 hours post oral dose 2.5 mg/kg, mean±SEM, read-out: Colon concentration", "value": "2840 ± 716", "unit": "ng/g"},
      {"measurement": "concentration at 4 h", "setting": "[2]; colon, 2.5 mg/kg, SS-2, mice, 4 hours post oral dose 2.5 mg/kg, mean±SEM, read-out: Colon concentration", "value": "1320 ± 270", "unit": "ng/g"},
      {"measurement": "concentration at 4 h", "setting": "[2]; colon, 5 mg/kg, SS-1, mice, 4 hours post oral dose 5 mg/kg, mean±SEM, read-out: Colon concentration", "value": "4630 ± 705", "unit": "ng/g"},
      {"measurement": "concentration at 4 h", "setting": "[2]; colon, 5 mg/kg, SS-2, mice, 4 hours post oral dose 5 mg/kg, mean±SEM, read-out: Colon concentration", "value": "4670 ± 953", "unit": "ng/g"},
      {"measurement": "concentration at 4 h", "setting": "[2]; colon, 25 mg/kg, SS-1, mice, 4 hours post oral dose 25 mg/kg, mean±SEM, read-out: Colon concentration", "value": "27500 ± 6130", "unit": "ng/g"},
      {"measurement": "concentration at 4 h", "setting": "[2]; colon, 25 mg/kg, SS-2, mice, 4 hours post oral dose 25 mg/kg, mean±SEM, read-out: Colon concentration", "value": "22900 ± 4150", "unit": "ng/g"},
      {"measurement": "concentration at 4 h", "setting": "[2]; serum, 5 mg/kg, SS-2, mice, 4 hours post oral dose 5 mg/kg, mean±SEM, read-out: Serum concentration", "value": "10.3 ± 6.9", "unit": "nM"},
      {"measurement": "concentration at 4 h", "setting": "[2]; serum, 25 mg/kg, SS-1, mice, 4 hours post oral dose 25 mg/kg, mean±SEM, read-out: Serum concentration", "value": "4.9 ± 2.1", "unit": "nM"},
      {"measurement": "concentration at 4 h", "setting": "[2]; serum, 25 mg/kg, SS-2, mice, 4 hours post oral dose 25 mg/kg, mean±SEM, read-out: Serum concentration", "value": "6.3 ± 2.9", "unit": "nM"},
      {"measurement": "concentration at 4 h", "setting": "[2]; serum, SS-1 and SS-2, all oral doses, 4 hours post dose, read-out: systemic (serum) exposure", "value": "≤ 10.3", "unit": "nM"},
      {"measurement": "Serum concentration", "setting": "[2]; SS-1, mice, 4 hours post oral dose 0.25 mg/kg, mean±SEM", "value": "BLOQ"},
      {"measurement": "Serum concentration", "setting": "[2]; SS-1, mice, 4 hours post oral dose 2.5 mg/kg, mean±SEM", "value": "BLOQ"},
      {"measurement": "Serum concentration", "setting": "[2]; SS-1, mice, 4 hours post oral dose 5 mg/kg, mean±SEM", "value": "BLOQ"},
      {"measurement": "Colon concentration", "setting": "[2]; SS-1, mice, 4 hours post oral dose 25 mg/kg, mean±SEM, 25 mg/kg", "value": "27488.1 ± 6128.6", "unit": "ng/g"},
      {"measurement": "Serum concentration", "setting": "[2]; SS-2, mice, 4 hours post oral dose 0.25 mg/kg, mean±SEM", "value": "BLOQ"},
      {"measurement": "Serum concentration", "setting": "[2]; SS-2, mice, 4 hours post oral dose 2.5 mg/kg, mean±SEM", "value": "BLOQ"},
      {"measurement": "Colon concentration", "setting": "[2]; SS-2, mice, 4 hours post oral dose 25 mg/kg, mean±SEM, 25 mg/kg", "value": "22929.6 ± 4146.6", "unit": "ng/g"},
      {"measurement": "concentration at 0.5 h", "setting": "[3]; colon, N = 2, read-out: Colon concentration", "value": 94.2, "unit": "ng/g"},
      {"measurement": "concentration at 1 h", "setting": "[3]; [4]", "value": 5110, "unit": "ng/g"},
      {"measurement": "concentration at 2 h", "setting": "[3]; [4]", "value": 6620, "unit": "ng/g"},
      {"measurement": "concentration at 3 h", "setting": "[3]; [4]", "value": 7760, "unit": "ng/g"},
      {"measurement": "concentration at 5 h", "setting": "[3]; [4]", "value": 8450, "unit": "ng/g"},
      {"measurement": "concentration at 7 h", "setting": "[3]; [4]", "value": 3790, "unit": "ng/g"},
      {"measurement": "concentration at 24 h", "setting": "[3]; colon, 24 h, mean ± SD, read-out: Colon concentration", "value": "195 ± 120", "unit": "ng/g"},
      {"measurement": "concentration at 0.5 h", "setting": "[3]; [5]", "value": "73.8 ± 11.6", "unit": "ng/g"},
      {"measurement": "concentration at 1 h", "setting": "[3]; [5]", "value": 22700, "unit": "ng/g"},
      {"measurement": "concentration at 2 h", "setting": "[3]; [5]", "value": 12000, "unit": "ng/g"},
      {"measurement": "concentration at 3 h", "setting": "[3]; [5]", "value": 16400, "unit": "ng/g"},
      {"measurement": "concentration at 5 h", "setting": "[3]; [5]", "value": 3440, "unit": "ng/g"},
      {"measurement": "concentration at 7 h", "setting": "[3]; [5]", "value": 2250, "unit": "ng/g"},
      {"measurement": "concentration at 24 h", "setting": "[3]; ileum, 24 h, mean ± SD, read-out: Ileum concentration", "value": "87.6 ± 17.8", "unit": "ng/g"},
      {"measurement": "concentration at 0.5 h", "setting": "[3]; [6]", "value": "34.8 ± 16.5", "unit": "ng/g"},
      {"measurement": "concentration at 1 h", "setting": "[3]; [6]", "value": "189 ± 304", "unit": "ng/g"},
      {"measurement": "concentration at 2 h", "setting": "[3]; [6]", "value": "84.5 ± 114", "unit": "ng/g"},
      {"measurement": "concentration at 3 h", "setting": "[3]; [6]", "value": "23.3 ± 0.8", "unit": "ng/g"},
      {"measurement": "concentration at 5 h", "setting": "[3]; [6]", "value": "16.8 ± 8.8", "unit": "ng/g"},
      {"measurement": "concentration at 7 h", "setting": "[3]; liver, N = 2, read-out: Liver concentration", "value": 24, "unit": "ng/g"},
      {"measurement": "concentration at 0.5 h", "setting": "[3]; [7]", "value": "3.5 ± 1.8", "unit": "ng/mL"},
      {"measurement": "concentration at 1 h", "setting": "[3]; [7]", "value": "2.6 ± 0.9", "unit": "ng/mL"},
      {"measurement": "concentration at 2 h", "setting": "[3]; [7]", "value": "2.3 ± 0.2", "unit": "ng/mL"},
      {"measurement": "concentration at 3 h", "setting": "[3]; [7]", "value": "3.2 ± 1.7", "unit": "ng/mL"},
      {"measurement": "concentration at 5 h", "setting": "[3]; [7]", "value": "2.1 ± 0.9", "unit": "ng/mL"},
      {"measurement": "concentration at 7 h", "setting": "[3]; [7]", "value": "6 ± 4.9", "unit": "ng/mL"},
      {"measurement": "Liver concentration", "setting": "[3]; 24 h, BLOQ (1 ng/mL)", "value": "BLOQ^b"},
      {"measurement": "Plasma concentration", "setting": "[3]; 24 h, BLOQ (1 ng/mL)", "value": "BLOQ^b"},
      {"measurement": "concentration in feces", "setting": "[3]; 24 hours post dose", "value": 125.6, "unit": "µg"}
    ]}
  ]
}
